Laboratory results published in patent US20260184700A1, “PDK1 REGULATORY COMPOUND AND COMPOSITION CONTAINING THE SAME” (PROVIBIO CO., LTD., priority 2024, published 2026).

Tests used:
[1] = tested on: skin-grafted C57BL/6 mice; assay: Skin graft animal model (BALB/c donor, C57BL/6 recipient); format: in vivo, mouse; settings: GO88 0.15 mg/kg twice daily
Description: To evaluate the immune-suppressive effects of the compounds according to the present invention, a skin graft animal model was established, and the efficacy of the compounds was analyzed in the model.
First, female BALB/c mice aged 7 weeks and weighing approximately 20 g were used as donor animals, and female C57BL/6 mice of the same age and weight were used as recipient animals. All experimental animals were supplied by HanabioTech Co., Ltd.
Prior to the experiment, the animals were acclimatized in SPF-certified facilities for one week and then used in the experiment. The housing conditions were maintained at a temperature of 22±2° C., relative humidity of 55±10%, and a 12-hour light-dark cycle.
To establish the skin graft model, a anesthetic solution consisting of ketamine, […], and PBS in a volume ratio of 1:1:3 was administered intraperitoneally to C57BL/6 mice to induce anesthesia.
The hair on the dorsal side of the anesthetized mice was removed and disinfected, followed by excision of the full-thickness skin using an 8 mm punch. Subsequently, skin of the same size was harvested from donor mice (BALB/c) and transplanted. […]
Subsequently, the proportions of CD3- and B220-positive cells were analyzed using a flow cytometer.

[2] = tested on: Human Melanoma cancer cell, Malme-3M; assay: Relative cell viability, CCK-8, Malme-3M; format: cell-based; settings: 48 hours
Description: Human-derived breast cancer cell line MCF-7, human-derived lung cancer cell line A549, human-derived colorectal cancer cell line HCT-116, human pancreatic cancer cell line AsPC-1, glioblastoma cell line A172, and melanoma cell line Malme-3M were obtained from the Korean Cell Bank. gastric cancer cell line SNU-719, and bladder cancer cell line T24 were cultured in RPMI-1640 medium containing 10% FBS.
(§1) Following stabilization, the cells were harvested using Trypsin-EDTA treatment, centrifuged at 1,200 rpm for 3 minutes, the supernatant was removed, and the cells were resuspended in the same medium. They were then seeded into a 96-well plate (Costar 96-well cell culture plate, Corning) at 100 μL per well, and the conditions were adjusted as indicated in Table 5.
The cells were cultured in a 5% CO2 incubator at 37° C. for 24 hours, and after stabilization of the cells, each plate was washed with 200 μL of PBS per well and treated with 50 μL of culture medium per well.
(§2) After that, 10 μL of CCK-8 was added to each well, and the plate was incubated again at 37° C. in a 5% CO2 incubator for 2 hours.
(§3) In other words, when the survival rate of untreated cells (DMSO) is set at 100%, the relative cell survival rate in each group treated with the drug at different concentrations is indicated.

[3] = tested on: Human Osteosarcoma, Saos-2; assay: Relative cell viability, CCK-8, Saos-2; format: cell-based
Description: Human-derived head and neck cancer cell line Fadu and osteosarcoma cell line Saos-2 were cultured in MEM medium containing 10% FBS, 100 U/mL penicillin, and 100 μg/mL streptomycin.
as §1
The cells were cultured in a 5% CO2 incubator at 37° C. for 24 hours, and after stabilization of the cells, each plate was washed with 200 μL of PBS per well and treated with 50 μL of culture medium per well. […]
as §2, §3

[4] = tested on: T cells isolated from mouse spleen; assay: T cell proliferation inhibition, CFSE flow cytometry, CD3/CD28 activation; format: cell-based; settings: CD3/CD28 activated, 3 days
Method in brief: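 Splenic T cells from 7-week-old C57BL/6 mice were MACS-isolated, CFSE-labelled, seeded at 2×10^5 cells/well and activated with anti-CD3/anti-CD28 (0.5 μg/mL each). Compound at 10 nM–50 μM (six levels, triplicate) was present for 3 days at 37 °C before flow cytometric readout of proliferation inhibition rate.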

Row | SMILES | animals with graft pinkening and good blood flow ([1]; day 10 post-transplantation) | animals with graft pinkening and good blood flow ([1]; day 15 post-transplantation) | Relative cell viability (%) ([2]; 1 μM) | Relative cell viability (%) ([2]; 10 μM) | Relative cell viability (%) ([2]; 30 μM) | Relative cell viability (%) ([2]; 50 μM) | Relative cell viability (%) ([3]; Saos-2, 10 μM, 48 hours) | Relative cell viability (%) ([3]; Saos-2, 30 μM, 48 hours) | Relative cell viability (%) ([3]; Saos-2, 50 μM, 48 hours) | Relative cell viability (%) ([3]; Saos-2, 48 hours) | Proliferation inhibition rate (%) ([4]; compound 100 nM) | Proliferation inhibition rate (%) ([4]; compound 1 μM) | Proliferation inhibition rate (%) ([4]; compound 10 μM) | Proliferation inhibition rate (%) ([4]; compound 30 μM) | Proliferation inhibition rate (%) ([4]; compound 50 μM)
1 | Nc1ncccc1C(=O)NCCCCCCCCCCCCN1CCNCC1 [Compound 14, 2-Amino-N-(12-(piperazin-1-yl)dodecyl)nicotinamide] | three out of five animals | one out of five animals |  |  |  |  |  |  |  |  |  |  |  |  | 
2 | CC1(C)CN(CCCCCCCCCCCCC(=O)Nc2nc(N)c3[nH]cnc3n2)CCO1 [Compound 11, 12-[4-(2,2-dimethylmorpholin-4-yl)]dodecyl-N-(6-aminopurine-2-yl)carboxamide] |  |  | 44.06 | 37.40 | 36.80 | 38.87 | 24.98 | 16.00 | 36.73 | 36.73 | 100.00 | 100.00 | 100.00 | 100.00 | 100.00
